Assay results reported in patent EP0183129A1, “Quinolonecarboxylic acid derivatives” (KYORIN PHARMACEUTICAL CO., LTD., priority 1984, dated 1986).
Counter-ions that a name gives are not always drawn. Like-named read-outs stand apart in the source and are kept apart here.

Columns and labels:
S. pneumoniae 3227 = test: In vitro antibacterial activity, MIC (clinical isolates); format: cell-based; conditions: Streptococcus pneumoniae; S. pneumoniae 3227; 10^6 cells/ml; clinical isolate; read-out: MIC
S. pneumoniae 2950 = test: as above; format: cell-based; conditions: Streptococcus pneumoniae; S. pneumoniae 2950; 10^6 cells/ml; clinical isolate; read-out: MIC
[1] = system: S. aureus IID 670 (Terajima); test: In vitro antibacterial activity, MIC (standard strain); format: cell-based, Staphylococcus aureus; conditions: Staphylococcus aureus
[2] = system: Pseudomonas aeruginosa V-1; test: as above; format: cell-based; conditions: V1; Pseudomonas aeruginosa V-1; 10^6 cells/ml; standard strain; read-out: MIC
S. pneumoniae 2054 = test: In vitro antibacterial activity, MIC (clinical isolates); format: cell-based; conditions: Streptococcus pneumoniae; S. pneumoniae 2054; 10^6 cells/ml; clinical isolate; read-out: MIC
P. mirabilis IID 994 = test: In vitro antibacterial activity, MIC (standard strain); format: cell-based; conditions: Proteus mirabilis, IID994; P. mirabilis IID 994; 10^6 cells/ml; standard strain; read-out: MIC
S. faecalis IID 682 = test: as above; format: cell-based; conditions: Enterococcus faecalis, IID682; S. faecalis IID 682; 10^6 cells/ml; standard strain; read-out: MIC
[3] = system: Staphylococcus aureus 209 P; test: as above; format: cell-based
S. epidermidis IID 866 = test: as above; format: cell-based; conditions: Staphylococcus epidermidis
K. pneumoniae 1-220S = test: as above; format: cell-based; conditions: Klebsiella pneumoniae, 1220S; K. pneumoniae 1-220S; 10^6 cells/ml; standard strain; read-out: MIC
[4] = system: Bacillus subtilis PCI 219; test: as above; format: cell-based; conditions: PCI219
S. faecalis 401 = test: In vitro antibacterial activity, MIC (clinical isolates); format: cell-based; conditions: Enterococcus faecalis; S. faecalis 401; 10^6 cells/ml; clinical isolate; read-out: MIC
Shigella sonnei IID 969 = test: In vitro antibacterial activity, MIC (standard strain); format: cell-based; conditions: IID969, 10^6 cells/ml
Protocol: Experiment-1 In vitro antibacterial activity
The in vitro antibacterial activity against gram-positive and gram-negative bacteria has been investivated.
The minimum inhibitory concentration (MIC) was determined in accordance with the method recommended by Japan Society of Chemotherapy.

[5] = system: Bacteroides fragilis GM 7000; test: as above; format: cell-based; conditions: GM7000; Bacteroides fragilis GM 7000; 10^6 cells/ml; standard strain; read-out: MIC
C. difficile I-E = test: as above; format: cell-based; conditions: Clostridioides difficile; C. difficile I-E; 10^6 cells/ml; standard strain; read-out: MIC
S. pneumoniae 24 = test: In vitro antibacterial activity, MIC (clinical isolates); format: cell-based; conditions: Streptococcus pneumoniae; S. pneumoniae 24; 10^6 cells/ml; clinical isolate; read-out: MIC
S. pyogenes 4372 = test: as above; format: cell-based; conditions: Streptococcus pyogenes; S. pyogenes 4372; 10^6 cells/ml; clinical isolate; read-out: MIC
S. aureus Smith = test: In vivo antibacterial activity against systemic infection in mice; set-up: species or system mice (ICR-S); conditions: Staphylococcus aureus, po, mice (ICR-S), an hour after intraperitoneal infection
Protocol: (§1) Experiment-2 In vivo antibacterial activity against systemic infection in mice (ICR-S)
(§2) The infections were produced by intraperitoneal injection of a suspension of the bacterial culture corresponding to the germ studied. The products were administered orally at an hour after the infection.

[6] = system: Yersinia enterocolitica IID 981; test: In vitro antibacterial activity, MIC (standard strain); format: cell-based; conditions: IID981; Yersinia enterocolitica IID 981; 10^6 cells/ml; standard strain; read-out: MIC
S. agalactiae 4342 = test: In vitro antibacterial activity, MIC (clinical isolates); format: cell-based; conditions: Streptococcus agalactiae; S. agalactiae 4342; 10^6 cells/ml; clinical isolate; read-out: MIC
S. agalactiae 4394 = test: as above; format: cell-based; conditions: Streptococcus agalactiae; S. agalactiae 4394; 10^6 cells/ml; clinical isolate; read-out: MIC
S. pyogenes IID 692 = test: In vitro antibacterial activity, MIC (standard strain); format: cell-based; conditions: Streptococcus pyogenes, IID692; S. pyogenes IID 692; 10^6 cells/ml; standard strain; read-out: MIC
[7] = system: Citrobacter freundii IID 976; test: as above; format: cell-based; conditions: IID976; Citrobacter freundii IID 976; 10^6 cells/ml; standard strain; read-out: MIC
B. fragilis 25285 = test: as above; format: cell-based, Bacteroides fragilis; conditions: Bacteroides fragilis, 25285, B. fragilis 25285; 10^6 cells/ml; standard strain; read-out: MIC
[8] = system: Alcaligenes faecalis 0104002; test: as above; format: cell-based; conditions: Alcaligenes faecalis, 0104002, Alcaligenes faecalis 0104002; 10^6 cells/ml; standard strain; read-out: MIC
S. pyogenes 4340 = test: In vitro antibacterial activity, MIC (clinical isolates); format: cell-based; conditions: Streptococcus pyogenes; S. pyogenes 4340; 10^6 cells/ml; clinical isolate; read-out: MIC
M. pneumoniae Mac. = test: In vitro antibacterial activity against Mycoplasma, MIC; format: cell-based; conditions: Mycoplasmoides pneumoniae, 120 h; M. pneumoniae Mac.; no visible growth after incubation for 5 days; read-out: MIC
Description: Experiment-3 In vitro antibacterial activity against Mycoplasma

E. coli ML4707 = test: In vivo antibacterial activity against systemic infection in mice; set-up: species or system mice (ICR-S); conditions: Escherichia coli, ML4707; mice (ICR-S); oral, an hour after intraperitoneal infection; challenge dose 2.7 x 10^6 ~ 8.8 x 10^6 cfu/mouse; read-out: ED50 E. coli ML4707
Protocol: as §1, §2

[9] = IID670, S. aureus IID 670 (Terajima), 10^6 cells/ml, standard strain, read-out: MIC
[10] = Staphylococcus aureus 209 P, 10^6 cells/ml, standard strain, read-out: MIC
[11] = IID866, S. epidermidis IID 866, 10^6 cells/ml, standard strain, read-out: MIC
[12] = Bacillus subtilis PCI 219, 10^6 cells/ml, standard strain, read-out: MIC
[13] = challenge dose 6.0 x 10^5 cfu/mouse, read-out: ED50 S. aureus Smith

NCC1CCN(c2c(F)cc3c(=O)c(C(=O)O)cn(C4CC4)c3c2F)C1 (stereo not drawn) [Example 1, 7-(3-Aminomethyl-l-pyrrolidinyl)-l-cyclopropyl-6,8-difluoro-1,4-dihydro-4-oxo-3-quinolinecarboxylic acid hydrochloride]
1.56 µg/mL: MIC (C. difficile I-E)
0.05 µg/mL: MIC (S. pneumoniae 3227) | MIC (S. pneumoniae 2950) | MIC [1, 9] | MIC (S. pneumoniae 2054) | MIC (P. mirabilis IID 994) | MIC (S. faecalis IID 682) | MIC [3, 10] | MIC (S. epidermidis IID 866; [11]) | MIC (K. pneumoniae 1-220S) | MIC (S. pneumoniae 24) | MIC (S. pyogenes 4372) | MIC [6] | MIC (S. agalactiae 4342) | MIC (S. pyogenes IID 692) | MIC [7] | MIC (S. pyogenes 4340)
0.025 µg/mL: MIC [4, 12] | MIC (Shigella sonnei IID 969)
0.39 µg/mL: MIC [2] | MIC (B. fragilis 25285) | MIC [8]
0.78 µg/mL: MIC [5]
0.1 µg/mL: MIC (S. faecalis 401) | MIC (S. agalactiae 4394)
0.9 mg/kg: ED50 (S. aureus Smith; challenge dose 7 x 10^5 cfu/mouse, n=5, read-out: ED50 against S. aureus Smith)

CCCNCC1CCN(c2c(F)cc3c(=O)c(C(=O)O)cn(C4CC4)c3c2F)C1 (stereo not drawn) [Example 10, 1-Cyclopropyl-6,8-difluoro-1,4-dihydro-4-oxo-7-(3-n-propylaminomethyl-l-pyrrolidinyl)-3-quinolinecarboxylic acid hydrochloride]
1.56 µg/mL: MIC [2] | MIC [5]
6.25 µg/mL: MIC (C. difficile I-E)
0.39 µg/mL: MIC (S. pneumoniae 2950) | MIC (S. faecalis IID 682) | MIC (S. pyogenes 4372) | MIC (S. pyogenes IID 692)
0.0125 µg/mL: MIC [4, 12]
0.1 µg/mL: MIC (S. epidermidis IID 866; [11]) | MIC [6]
0.025 µg/mL: MIC (P. mirabilis IID 994) | MIC (Shigella sonnei IID 969)
0.2 µg/mL: MIC (S. pneumoniae 3227) | MIC (K. pneumoniae 1-220S) | MIC (S. agalactiae 4342) | MIC (S. pyogenes 4340)
0.05 µg/mL: MIC [1, 9] | MIC [3, 10] | MIC [7]
0.78 µg/mL: MIC (S. pneumoniae 2054) | MIC (S. faecalis 401) | MIC (S. agalactiae 4394) | MIC (B. fragilis 25285) | MIC [8]

CC(C)NCC1CCN(c2c(F)cc3c(=O)c(C(=O)O)cn(C4CC4)c3c2F)C1.Cl (stereo not drawn) [Example 11, 1-Cyclopropyl-6,8-difluoro-1,4-dihydro-7-(3-isopropylaminomethyl-1-pyrrolidinyl)-4-oxo-3-quinolinecarboxylic acid hydrochloride]
1.56 µg/mL: MIC [2] | MIC [5] | MIC [8]
0.39 µg/mL: MIC (S. pneumoniae 3227) | MIC (S. faecalis IID 682) | MIC (S. faecalis 401) | MIC (S. agalactiae 4394)
0.1 µg/mL: MIC (P. mirabilis IID 994) | MIC [7]
0.2 µg/mL: MIC (S. pneumoniae 2950) | MIC (S. pneumoniae 2054) | MIC (K. pneumoniae 1-220S) | MIC (S. pyogenes 4372) | MIC [6] | MIC (S. agalactiae 4342) | MIC (S. pyogenes IID 692) | MIC (S. pyogenes 4340)
0.025 µg/mL: MIC [4, 12]
3.13 µg/mL: MIC (C. difficile I-E)
0.78 µg/mL: MIC (B. fragilis 25285)
0.05 µg/mL: MIC [1, 9] | MIC [3, 10] | MIC (S. epidermidis IID 866; [11]) | MIC (Shigella sonnei IID 969)

CNCC1CCN(c2c(F)cc3c(=O)c(C(=O)O)cn(C4CC4)c3c2Cl)C1 (stereo not drawn) [Example 12, 8-Chloro-l-cyclopropyl-6-fluoro-1,4-dihydro-7-(3-methylaminomethyl-1-pyrrolidinyl)-4-oxo-3-quinolinecarboxylic acid hydrochloride]
0.5 mg/kg: ED50 (S. aureus Smith; [13])
0.1 µg/mL: MIC (S. faecalis 401) | MIC (S. agalactiae 4394) | MIC (B. fragilis 25285)
0.0125 µg/mL: MIC [3, 10] | MIC [4, 12]
0.025 µg/mL: MIC [1, 9] | MIC (P. mirabilis IID 994) | MIC (S. epidermidis IID 866; [11]) | MIC (Shigella sonnei IID 969)
0.05 µg/mL: MIC (S. pneumoniae 3227) | MIC (M. pneumoniae Mac.) | MIC (S. pneumoniae 2054) | MIC (S. faecalis IID 682) | MIC (K. pneumoniae 1-220S) | MIC (S. pneumoniae 24) | MIC (S. pyogenes 4372) | MIC [6] | MIC (S. agalactiae 4342) | MIC (S. pyogenes IID 692) | MIC [7] | MIC (S. pyogenes 4340)
0.2 µg/mL: MIC [5]
1.9 mg/kg: ED50 (E. coli ML4707)
0.39 µg/mL: MIC [2] | MIC [8]

NCC1CCN(c2c(F)cc3c(=O)c(C(=O)O)cn(C4CC4)c3c2Cl)C1 (stereo not drawn) [Example 14, 8-Chloro-l-cyclopropyl-6-fluoro-l,4-dihydro-7-(3-aminomethyl-l-pyrrolidinyl)-4-oxo-3-quinolinecarboxylic acid hydrochloride]
0.025 µg/mL: MIC (P. mirabilis IID 994) | MIC [7]
0.0125 µg/mL: MIC ([1]; IID670) | MIC ([3]; Staphylococcus aureus, 209P) | MIC (S. epidermidis IID 866; IID866) | MIC ([4]; Bacillus subtilis) | MIC (Shigella sonnei IID 969)
0.2 µg/mL: MIC [2] | MIC [8]
0.1 µg/mL: MIC [5] | MIC (S. agalactiae 4394)
0.05 µg/mL: MIC (S. pneumoniae 3227) | MIC (S. pneumoniae 2054) | MIC (S. faecalis IID 682) | MIC (K. pneumoniae 1-220S) | MIC (S. faecalis 401) | MIC (S. pneumoniae 24) | MIC (S. pyogenes 4372) | MIC [6] | MIC (S. agalactiae 4342) | MIC (S. pyogenes IID 692) | MIC (B. fragilis 25285) | MIC (S. pyogenes 4340)
5.4 mg/kg: ED50 (E. coli ML4707)

CCNCC1CCN(c2c(F)cc3c(=O)c(C(=O)O)cn(CC)c3c2F)C1 (stereo not drawn) [Ref.1, 1-Ethyl-7-(3-ethylaminomethyl-1-pyrrolidinyl)-6,8-difluoro-1,4-dihydro-4-oxo-3-quinolinecarboxylic acid, reference compound]
0.78 µg/mL: MIC (S. agalactiae 4394)
0.39 µg/mL: MIC (S. pneumoniae 3227) | MIC (S. pneumoniae 2950) | MIC (M. pneumoniae Mac.) | MIC (S. pneumoniae 2054) | MIC (K. pneumoniae 1-220S) | MIC (S. faecalis 401) | MIC [6] | MIC (S. agalactiae 4342) | MIC (S. pyogenes IID 692)
0.2 µg/mL: MIC (P. mirabilis IID 994) | MIC (S. faecalis IID 682) | MIC (S. pyogenes 4372) | MIC [7] | MIC (S. pyogenes 4340)
5 mg/kg: ED50 (S. aureus Smith; [13])
12.5 µg/mL: MIC [5] | MIC [8]
0.1 µg/mL: MIC [1, 9] | MIC (S. epidermidis IID 866; [11]) | MIC (Shigella sonnei IID 969)
6.25 µg/mL: MIC [2] | MIC (B. fragilis 25285)
> 10 mg/kg: ED50 (E. coli ML4707)
0.05 µg/mL: MIC [3, 10] | MIC [4, 12]
